Experimental data from patent US20100119502A1, “THERAPY REGIMENS, DOSING REGIMENS AND STABLE MEDICAMENTS FOR THE TREATMENT OF POMPE DISEASE” (AMICUS THERAPEUTICS, INC., priority 2008, published 2010).
“Also recorded” adds a separate entry of the source. Structures can show the parent of a compound that is named as a salt.

Assays:
[1] = target: T1, recombinant human GAA (Myozyme®, Genzyme Corp.) (Homo sapiens, UniProt P10253); assay: SYPRO Orange thermal stability assay of rhGAA; assay type: binding
T1 construct: purchased Genzyme Corp; host or cells: Chinese hamster ovary cell line
From the text: The thermal stability assay utilizes heat to induce protein denaturation, which is monitored using a SYPRO Orange dye that fluoresces upon binding to hydrophobic amino acids (which are not exposed in a folded protein).
FIG. 2B depicts a parallel SYPRO Orange thermal stability experiment to determine if the loss of enzyme activity shown in FIG. 2A, particularly the loss of Myozyme activity at ER pH (7.4), correlates with protein unfolding and denaturation. […]
Denaturation is monitored using a SYPRO Orange dye that fluoresces upon binding to hydrophobic amino acids (which are not exposed in a folded protein).
The thermal stability was performed at pH 7.4 for two formulations, which corresponds to the pH of the ER.
In order to determine if loss of initial enzyme activity is correlated to failure to maintain a proper conformation, a SYPRO Orange thermal stability experiment was performed on the samples above as generally described in Example 1. […] Based on this experiment, the % of GAA folded was estimated and plotted in FIG. 2B. […]

GAA KO mice [2] = assay: In vivo uptake of Myozyme in GAA KO mice with and without oral 1-DNJ-HCl (4-MUG tissue GAA activity)
From the text: Enzymatic activity as determined using a 4-MUG fluorogenic substrate assay.

GAA KO mouse = assay: GAA enzyme activity in heart and diaphragm of GAA KO mouse (rhGAA uptake); assay type: in vivo; conditions: rhGAA co-administered with 1-DNJ-HCl vs ERT monotherapy
Description: Heart and Diaphragm tissue homogenates were harvested and rhGAA activity was measured using the fluorogenic substrate (4-MUG).

rhGAA (Myozyme™) = target: T2, rhGAA (Myozyme™) (Homo sapiens, UniProt P10253); assay: rhGAA enzyme inactivation in citrate anti-coagulated whole blood at 37° C.; assay type: in vitro ADME; conditions: for rhGAA enzyme inactivated: whole blood 37° C., no 1-DNJ-HCl
T2 construct: purchased Genzyme Corp; host or cells: Chinese hamster ovary cell line
Description: Aliquots were collected at 0, 2, 4, 8 and 24 hrs and centrifuged to obtain plasma. These plasma samples were then diluted in potassium acetate buffer (pH 4.0) and assayed for GAA activity using the 4-methylumbeliferyl-α-glucose (4-MUG) fluorogenic substrate. The measured GAA activity for individual samples at each time point was normalized to the 0 hr and expressed as % of initial activity. Data from 4 independent experiments were analyzed to obtain the mean (and standard deviation) and plotted versus time to assess the loss of enzyme activity over this time course.
Aliquots were collected at 0, 3 and 6 hrs and centrifuged to obtain plasma. These plasma samples were then diluted in potassium acetate buffer (pH 4.0) and assayed for GAA activity using the 4-methylumbeliferyl-a-glucose (4-MUG) fluorogenic substrate. The measured GAA activity for individual samples at each time point was normalized to the 0 hr and expressed as % of initial activity.
Based on human plasma PK data, these concentrations are readily obtainable in the clinic.

GAA KO mice [3] = assay: Tissue glycogen reduction in GAA KO mice; assay type: in vivo; conditions: Myozyme co-administered with 30 mg/kg 1-DNJ-HCl
Description: To prevent anaphylaxis, before the third and fourth Myozyme™ injection, diphenhydramine (10 mg/kg intraperitoneally) was administered 10 min before Myozyme™ injection. […] Mice were euthanized 14 days after the last Myozyme™ administration. Glycogen levels in heart, diaphragm, soleus, and quadriceps were then measured. […] Supernatants were heat denatured (99° C. for 10 min) to remove endogenous amyloglucosidase activity. […] The reaction was stopped by inactivation at 100° C. for 10 min. […] Simultaneously, the amount of protein was determined in tissue homogenates using the Micro BCA Protein Assay (Pierce, Rockford, Ill.) following the manufacturer's instructions. The glycogen content of each sample was normalized to protein, and data were finally expressed as micrograms of glycogen per milligram of protein (μg/mg protein).

[4] = stored at 2 to 8° C.; cited from earlier work

Molecule	GAA folding / denaturation (% of GAA folded) ([1]; 37° C. over 24 hours, Myozyme 0.9 μM, pH 7.4, with or without 100 μM 1-DNJ-HCl)	stability of rhGAA (heat required to denature) ([1]; pH 7.4, Myozyme plus 100 μM 1-DNJ-HCl vs Myozyme alone, hydrochloride)	Myozyme tissue uptake (as a measure of GAA activity) with coadministered 1-DNJ-HCl (GAA KO mice [2]; Myozyme 10 mg/kg IV weekly up to 3 weeks plus 10, 100, 1000 mg/kg oral 1-DNJ-HCl)	rhGAA uptake in the heart and diaphragm (GAA activity) (GAA KO mouse)	stabilizing rhGAA and preventing enzyme inactivation in whole blood (rhGAA (Myozyme™); high 1-DNJ-HCl concentrations (50 and 100 μM))	rhGAA activity in whole blood (rhGAA (Myozyme™); rhGAA with 50 μM 1-DNJ-HCl, 37° C., up to 24 hrs)	tissue glycogen reduction compared to Myozyme alone (GAA KO mice [3])	stability of rhGAA by pH ([1]; Myozyme alone, pH 5.2 vs pH 7.4)	Myozyme tissue uptake (as a measure of GAA activity) (GAA KO mice [2]; Myozyme 10 mg/kg IV weekly, 7 days post injection)	rhGAA enzyme inactivated (rhGAA (Myozyme™); by 4 hrs)	rhGAA enzyme inactivated (rhGAA (Myozyme™); by 8 hrs) [%]	rhGAA enzyme inactivated (rhGAA (Myozyme™); by 24 hrs) [%]	time the product is stable on storage [4]
OC[C@H]1NC[C@H](O)[C@@H](O)[C@@H]1O [1-DNJ-HCl, 1-deoxynorjirimycin hydrochloride]	can prevent GAA denaturation and loss of enzyme activity	required significantly more heat to denature; also recorded: significantly increased	dose-dependent increase in Myozyme uptake	increased	best for stabilizing rhGAA and preventing enzyme inactivation	remained completely active	significantly greater tissue glycogen reduction	–	–	–	–	–	–
Myozyme: alglucosidase alfa, human acid α-glucosidase produced by recombinant DNA technology in a Chinese hamster ovary cell line (Genzyme)	–	–	–	–	–	–	–	much more stable at lysosomal pH (5.2) than at ER pH (7.4)	declined at 7 days post injection	approximately 40%	~70	~100	up to 24 hours
